Read-outs that look alike come from different tables or passages of the source.

For data set [1] the following is noted: 36.5° C., 60 rpm. As for the experimental part: Experimental materials were as follows: a. uric acid (crystal); b.
Background: An assumption was set that a 60 kg hyperuricemic patient with a total blood volume of 4500 ml has 7 mg of uric acid dissolved in 100 ml of blood and 3 mg of uric acid crystals in 100 ml of blood.

Data set [2] relates to uric acid crystals in rat kidneys. Conditions: for kidney weight / serum uric acid: day 5; for kidneys observed with obvious radial white lines (uric acid crystal deposition): 5 days. As for the experimental part:
Except for the normal control group, the other groups were intraperitoneally injected with 300 mg/kg of potassium oteronate and intragastrically perfused with 300 mg/kg of hypoxanthine, and the volume of injection and intragastrical perfusion were 5 ml/kg respectively. The normal control group was administered with the same volume of 0.5% CMC-Na, and the model was established at 0.5 h after the second administration every day with once a day and for five consecutive days. […] The normal and model control groups were administered with the same volume of 0.5% CMC-Na by gastric perfusion.
On the 4th day of the test, the rats were fasted overnight (about 16 h). On the 5th day of the test, the rats were weighed and anesthetized by intraperitoneal injection of 60 mg/kg sodium pentobarbital, with an injection volume of 2 ml/kg. About 0.7 mL of blood was collected from the orbit and then the kidney was removed. The whole blood was centrifuged at 6000 r/min for 10 min, the supernatant was taken and stored at -20° C. for keeping the blood uric acid content to be determined. The kidney was weighed, opened to observe the deposition of uric acid crystals in white radial pattern, and stored at -70° C. for future use.
Uric acid content determination: After the serum was rapidly remelted, the uric acid content was determined according to the method specified in the instructions for use, and the serum uric acid content was calculated.
Data processing: The data were expressed as mean ± standard deviation (x ± SD) and analyzed with SPSS 25.0 software. One-Way ANOVA was used for comparison among multiple groups. LSD test was used for homogeneity of variance, where P <0.05 was considered as statistically significant.

The conditions of data set [3]: 50 mg sodium urate in 35 ml of 0.3 mol/L solution pH 7.4±0.5, 36.5° C., 4 hours, 60 rpm.

Consider `Cl.NC(CO)(CO)CO` [Changsheng No. 1, trimethylol aminomethane hydrochloride], for which the Dissolving time stood at 4 h in data set [1] (test 1: 0.3 mol/L, 0.5 ml/kg (30 ml), 7 mg dissolved + 3 mg crystalized uric acid per 100 ml); 2 h in data set [1] (test 2: 0.3 mol/L, 1.0 ml/kg (60 ml), 7 mg dissolved + 3 mg crystalized uric acid per 100 ml); 2 h in data set [1] (test 3: 0.3 mol/L, 1.5 ml/kg (90 ml), 7 mg dissolved + 3 mg crystalized uric acid per 100 ml); 0.5 h in data set [1] (test 4: 0.3 mol/L, 2.0 ml/kg (120 ml), 7 mg dissolved + 3 mg crystalized uric acid per 100 ml); 0.5 h in data set [1] (test 5: 0.3 mol/L, 3.0 ml/kg (180 ml), 7 mg dissolved + 3 mg crystalized uric acid per 100 ml); 4 h in data set [1] (test 6: 0.6 mol/L, 0.5 ml/kg (30 ml), 7 mg dissolved + 8 mg crystalized uric acid per 100 ml). In addition, the Dissolving time in data set [1] (test 7: 0.6 mol/L, 1.0 ml/kg (60 ml), 7 mg dissolved + 8 mg crystalized uric acid per 100 ml) turned out to be 2 h; in data set [1] (test 8: 0.6 mol/L, 1.5 ml/kg (90 ml), 7 mg dissolved + 8 mg crystalized uric acid per 100 ml), 0.5 h. The “uric acid crystal deposition in the kidney, dose dependence” value in data set [2] (0.85-3.40 g/kg, solution at pH 7.4) is “dose-dependently reduced”. In addition, the kidney weight amounted to 2.636 ± 0.491 g in data set [2] (0.85 g/kg), 2.507 ± 0.461 g in data set [2] (1.70 g/kg) and 2.207 ± 0.114 g in data set [2] (3.40 g/kg). Also, the figures for the serum uric acid in data set [2] (0.85 g/kg), in data set [2] (1.70 g/kg) and in data set [2] (3.40 g/kg) were 976.91 ± 172.29 µmol/L, 838.42 ± 3.19 µmol/L and 965.17 ± 215.90 µmol/L, respectively. Moreover, the “kidneys observed with obvious radial white lines (uric acid crystal deposition)” value in data set [2] (0.85 g/kg/day by gavage) is recorded as 11/14; in data set [2] (1.7 g/kg/day by gavage), 5/14; in data set [2] (3.40 g/kg/day by gavage, hydrochloride) it was “no difference from that of the normal control group”; in data set [2] (3.40 g/kg/day by gavage, listed as Changsheng No.1, hydrochloride), “none of 14”. In data set [2] (all dose groups (0.85, 1.70, 3.40 g/kg)), the “blood uric acid content compared with the model control group” value is on record as “effect of improvement”. For the same compound, under “21 mg uric acid in 100 ml of 8 mM (pH 7.4) solution, stirring 1 hour”, the “dissolution of uric acid in the solution” value is “completely dissolved”. Also, the “uric acid level at which the complex did not precipitate as crystals” value (after treatment with the solution, extrapolated to blood) is reported as “up to 1260 µmol/L”. Besides, in data set [3], the “dissolution of sodium urate crystals” value is “dissolved completely”.

Values taken from patent publication US20230330041A1, “APPLICATION OF TRIS (HYDROXYMETHYL) AMINOMETHANE PHARMACEUTICALLY ACCEPTABLE SALT TO DRUGS FOR TREATING […]” (BEIJING CHANGSHENG PHARMACEUTICAL TECHNOLOGY CO., LTD., priority 2020, published 2023).
